Data published in patent US10513521B2, “Compositions and methods for inhibiting BMP” (The Brigham and Women's Hospital, Inc., priority 2014, dated 2019).
Where two headings read alike, the source gives them in different places.

Tests used:
[1] = target: T1, ALK2 (Mus musculus, UniProt P37172); experiment: HTRF pSMAD1 cell-based ALK2 assay (C2C12 cells, BMP6 as agonist)
T1 construct: The C2C12 cell line was selected for the measurement of ALK2 activity using BMP6 as the agonist; host or cells: C2C12
T1 sequence (P37172 21-509): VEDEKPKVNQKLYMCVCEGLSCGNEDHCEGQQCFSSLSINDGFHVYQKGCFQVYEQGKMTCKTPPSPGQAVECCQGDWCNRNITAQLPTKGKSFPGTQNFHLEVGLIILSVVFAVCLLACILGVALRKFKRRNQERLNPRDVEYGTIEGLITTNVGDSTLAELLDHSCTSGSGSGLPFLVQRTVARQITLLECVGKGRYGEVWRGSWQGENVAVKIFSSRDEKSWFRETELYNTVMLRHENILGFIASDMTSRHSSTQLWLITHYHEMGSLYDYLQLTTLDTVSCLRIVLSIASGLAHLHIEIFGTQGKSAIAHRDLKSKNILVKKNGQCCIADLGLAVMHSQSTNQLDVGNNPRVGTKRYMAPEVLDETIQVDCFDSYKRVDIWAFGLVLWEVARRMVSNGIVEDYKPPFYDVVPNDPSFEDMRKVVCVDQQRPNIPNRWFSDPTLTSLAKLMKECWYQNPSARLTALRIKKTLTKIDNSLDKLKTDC
In short: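 Phospho-SMAD1 HTRF readout, detection incubated overnight at room temperature. Before that: starved cells in 0.1% FBS for 4 h, 30 min compound pretreatment, then 30 min agonist, BMP6 on C2C12 or BMP9 on BAOEC.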

[2] = target: T2, ALK1 (Bos taurus, UniProt A4FUX2); experiment: HTRF pSMAD1 cell-based ALK1 assay (BAOEC cells, BMP9 as agonist); design: species or system Bovine
T2 construct: The BAOEC cell line was employed for the measurement of ALK1 activity using BMP9 as the agonist; host or cells: BAOEC (bovine aortic endothelial cells)
T2 sequence (A4FUX2 23-503): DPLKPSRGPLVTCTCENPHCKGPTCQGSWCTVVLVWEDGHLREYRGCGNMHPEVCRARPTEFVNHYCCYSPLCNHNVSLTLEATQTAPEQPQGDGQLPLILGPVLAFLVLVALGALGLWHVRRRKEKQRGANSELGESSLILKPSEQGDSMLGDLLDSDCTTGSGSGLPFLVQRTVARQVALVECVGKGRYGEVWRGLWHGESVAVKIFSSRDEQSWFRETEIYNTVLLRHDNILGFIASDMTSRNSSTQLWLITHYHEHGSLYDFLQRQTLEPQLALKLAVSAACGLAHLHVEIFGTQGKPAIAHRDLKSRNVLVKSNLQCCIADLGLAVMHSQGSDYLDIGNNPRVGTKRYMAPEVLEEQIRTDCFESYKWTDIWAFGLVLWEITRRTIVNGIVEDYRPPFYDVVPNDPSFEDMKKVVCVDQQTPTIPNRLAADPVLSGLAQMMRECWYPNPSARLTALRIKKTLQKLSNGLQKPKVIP
Description: 2. HTRF Cell-Based ALK1 and ALK2 Assays in 384-Well Plate Format We have developed a cell based ALK1 kinase assay and a cell-based ALK2 assay. The BAOEC cell line was employed for the measurement of ALK1 activity using BMP9 as the agonist. The C2C12 cell line was selected for the measurement of ALK2 activity using BMP6 as the agonist. The kinase specificity was defined by the specific cell line and agonist. The kinase activity was determined by the status of SMD 1/5/8 phosphorylation stimulated by the agonist.
HyClone Fetal Bovine Serum was obtained from GE healthcare life sciences (Logan, Utah). BMP6 and BMP9 were purchased from R&D System. […] The compound plates and the white solid MB assay plates were purchased from Greiner Bio-one (Monroe, N.C.).
HTRF optimization experiments were performed in 384 well plate format. […] Pre-starved cells were then plated in 384 well plate in the starvation medium (containing in 0.1% FBS). After 4 hours, compounds were added to the assay plate and incubated for 30 minutes. The assay plate was then added with BMP6 for C2C12 cells or BMP9 for BAOEC cells and incubated for 30 minutes.
HTRF assay was performed to measure the status of SMAD 1 phosphorylation after stimulated with the agonist (Table 3). This HTRF phospho SMAD1 cell assay was developed and optimized for the homogenous detection of phospho SMAD 1 levels in cells. […] The plate was incubated at room temperature for overnight.

[3] = target: ALK3 (Homo sapiens, UniProt P36894); experiment: TR-FRET enzymatic ALK kinase assay, ALK3
Sequence of ALK3 (P36894 24-532): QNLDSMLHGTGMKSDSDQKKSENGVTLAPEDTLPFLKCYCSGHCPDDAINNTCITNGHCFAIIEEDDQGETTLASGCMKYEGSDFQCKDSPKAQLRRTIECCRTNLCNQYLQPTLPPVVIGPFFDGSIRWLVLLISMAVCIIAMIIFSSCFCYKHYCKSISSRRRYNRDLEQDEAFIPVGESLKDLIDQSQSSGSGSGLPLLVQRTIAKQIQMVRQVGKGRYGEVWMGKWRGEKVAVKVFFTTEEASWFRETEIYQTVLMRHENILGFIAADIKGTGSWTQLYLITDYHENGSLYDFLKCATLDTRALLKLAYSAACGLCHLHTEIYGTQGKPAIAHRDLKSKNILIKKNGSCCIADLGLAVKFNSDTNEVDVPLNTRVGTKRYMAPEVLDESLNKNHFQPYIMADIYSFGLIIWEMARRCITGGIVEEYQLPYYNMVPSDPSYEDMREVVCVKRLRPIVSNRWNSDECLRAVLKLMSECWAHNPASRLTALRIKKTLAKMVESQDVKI
Description: (§1) Briefly, the ALKs enzymatic assay was initiated by dispense 2.5 μl enzyme in 1× kinase reaction buffer. The assay plate was then added with compounds followed by incubation at room temperature for 10 minutes. Then 2.5 μl/well substrate was added.

[4] = target: T3, ALK4 (Homo sapiens, UniProt P36896); experiment: TR-FRET enzymatic ALK kinase assay, ALK4
T3 sequence (P36896 24-505): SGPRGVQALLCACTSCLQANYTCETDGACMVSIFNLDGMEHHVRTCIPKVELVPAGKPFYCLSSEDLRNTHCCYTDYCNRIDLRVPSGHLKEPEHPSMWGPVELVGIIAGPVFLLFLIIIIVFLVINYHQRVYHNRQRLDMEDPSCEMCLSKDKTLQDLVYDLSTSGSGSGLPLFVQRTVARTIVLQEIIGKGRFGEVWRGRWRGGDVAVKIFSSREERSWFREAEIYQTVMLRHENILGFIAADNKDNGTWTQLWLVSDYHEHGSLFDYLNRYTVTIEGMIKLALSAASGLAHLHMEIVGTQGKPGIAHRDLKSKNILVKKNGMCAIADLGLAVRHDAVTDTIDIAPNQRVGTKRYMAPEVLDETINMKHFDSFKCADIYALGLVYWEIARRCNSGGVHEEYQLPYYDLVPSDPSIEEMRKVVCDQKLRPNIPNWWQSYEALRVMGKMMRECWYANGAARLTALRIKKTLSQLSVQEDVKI
Description: as §1

[5] = cell-based assay, BMP6, read-out: Cell IC50 BMP6

Row | SMILES | IC50 ([1]; HTRF assay, BMP6 as agonist, C2C12 cells, read-out: BMP6 HTRF) | IC50 [1, 5] | IC50 [2] | IC50 [3] | IC50 [4]
1 | C[S+](=O)([O-])c1cccc(-c2cnn3cc(-c4ccc(OC5(Cn6ccnc6)COC5)cc4)cnc23)c1 [Compound 105, 6-(4-((3-((1H-imidazol-1-yl)methyl)oxetan-3-yl)oxy)phenyl)-3-(3-(methylsulfonyl)phenyl)pyrazolo[1,5-a]pyrimidine] | 350 nM | < 1 nM | 140 nM | > 10000 nM | > 10 µM
2 | C[C@@H]1CNC[C@H](C)N1c1ccc(-c2cnc3c(-c4cccc([S+](=O)([O-])C5CC5)c4)cnn3c2)cc1 [Compound 111, 3-(3-(cyclopropylsulfonyl)phenyl)-6-(4-((2R,6S)-2,6-dimethylpiperazin-1-yl)phenyl)pyrazolo[1,5-a]pyrimidine] |  | < 1 nM | 850 nM | 970 nM | 6.5 µM
